# Patent US12458643B2, “Antidepressant/anxiolytic drug in which PAC1 receptor antagonist is used” (KAGOSHIMA UNIVERSITY, priority 2020, dated 2025)
# Key:
# normal mice [1] = experiment: Open field test in normal mice; type: in vivo, mouse; details: normal male C57BL/6J mice, 30 mg/kg i.p., 60 min after administration, 10 min test
# Procedure: The effects of PA-8 and PA-81004 on normal mice were evaluated by an open field test (test to measure spontaneous locomotion in a novel environment by exploiting the properties of mice to do exploratory behavior in such a novel environment, and using a 40 cm×40 cm box of 30 cm in height; spontaneous motor activity is measured from the total distance traveled; in this test, anxiety-like behavior is evaluated by exploiting the properties of mice to prefer to stay near walls and avoid light environments, and measuring a time spent in a center zone (20 cm×20 cm) or the number of entries thereto). Male C57BL/6J mice (8 to 12 weeks old) were acclimatized to a laboratory (illuminance: 40 lx) for 60 minutes. Then, a vehicle (10% DMSO solution; dissolved in saline; n=11), PA-8 (30 mg/kg; n=9) or PA-81004 (30 mg/kg; n=12) was intraperitoneally administered thereto (0.1 mL/10 g). After a lapse of 60 minutes after administration, the test was conducted for 10 minutes. The results are shown in FIG. 1 (A: total distance traveled, B: the number of center zone entries, C: time spent in the center zone). The effects of PA-9 and PA-915 on normal mice were evaluated by the open field test. Male C57BL/6J mice (8 to 12 weeks old) were acclimatized to a laboratory (illuminance: 40 lx) for 60 minutes. Then, a vehicle (10% DMSO solution; dissolved in saline; n=10), PA-9 (30 mg/kg; n=11) or PA-915 (30 mg/kg; n=10) was intraperitoneally administered thereto (0.1 mL/10 g). After a lapse of 60 minutes after administration, the test was conducted for 10 minutes. The results are shown in FIG. 5 (A: total distance traveled, B: the number of center zone entries, C: time spent in the center zone).
# [2] = disclosed in Patent Literature 2 (WO 2019/065794); cited from earlier work
# PAC1 receptor = biological target: T1, PAC1 receptor (Homo sapiens, UniProt P41586); details: disclosed in Patent Literature 2 (WO 2019/065794); cited from earlier work
# T1 sequence (P41586 21-468): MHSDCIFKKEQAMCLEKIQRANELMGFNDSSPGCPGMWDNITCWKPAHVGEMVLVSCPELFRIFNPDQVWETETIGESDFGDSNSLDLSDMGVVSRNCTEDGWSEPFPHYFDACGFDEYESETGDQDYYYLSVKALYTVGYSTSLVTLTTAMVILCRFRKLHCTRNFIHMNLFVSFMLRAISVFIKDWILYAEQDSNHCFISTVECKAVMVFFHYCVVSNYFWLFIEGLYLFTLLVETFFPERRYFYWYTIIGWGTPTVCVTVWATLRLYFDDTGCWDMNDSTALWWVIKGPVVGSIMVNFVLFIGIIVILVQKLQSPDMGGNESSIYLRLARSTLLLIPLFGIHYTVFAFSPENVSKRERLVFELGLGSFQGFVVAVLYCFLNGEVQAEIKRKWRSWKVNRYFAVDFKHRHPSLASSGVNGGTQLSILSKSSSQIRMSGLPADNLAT
# [3] = test system: chronically corticosterone-administered model mice; experiment: Repeated corticosterone administration, forced swim test; type: in vivo, mouse; details: male mice, corticosterone 20 mg/kg s.c. 21 days; single i.p. PA-915 30 mg/kg, ketamine 20 mg/kg, fluoxetine 20 mg/kg; 24 hours later
# Procedure: Chronically corticosterone-administered model mice are model mice that mimic high plasma corticosterone levels associated with the hyperactivation of the hypothalamic-pituitary-adrenal system under pathological stress, and are generally used as depression model mice.
# A vehicle (0.5% carboxymethylcellulose solution) or corticosterone (20 mg/kg) was subcutaneously administered (0.1 mL/10 g) to male C57BL/6J mice (6 weeks old) for 21 days. A vehicle (10% DMSO solution; dissolved in saline; n=11), PA-915 (30 mg/kg; n=13), ketamine (20 mg/kg; n=13) or fluoxetine (20 mg/kg; n=15) was intraperitoneally administered thereto (0.1 mL/10 g) 3 hours after administration on the 21st day. The mice were forced to swim for 6 minutes 24 hours later, and an immobility time was measured. Mice given the vehicle by repeated administration without repeated corticosterone administration were used as a control (n=11). The data was indicated by mean±standard error. **P<0.01 (One-way ANOVA followed by Tukey-Kramer test).
# A vehicle (0.5% carboxymethylcellulose solution) or corticosterone (20 mg/kg) was subcutaneously administered (0.1 mL/10 g) to female C57BL/6J mice (9 weeks old) for 21 days. […] The mice were forced to swim for 6 minutes 24 hours later, and an immobility time was measured. […]
# normal mice [4] = experiment: Radial maze test in normal mice; type: in vivo, mouse; details: i.p. PA-915 30 mg/kg, ketamine 20 mg/kg, 30 minutes later, Day 10
# Procedure: (3) The effects of PA-915 and ketamine on normal mice were evaluated by a radial maze test (test to evaluate spatial working memory by exploiting the foraging behavior of mice, and using an apparatus having 40 cm long, 10 cm wide and 12 cm high arms radially arranged in 8 directions).
# On Day 0, male C57BL/6J mice (8 weeks old) were acclimatized to the apparatus by free exploration for 10 minutes in the apparatus in a laboratory (illuminance: 200 lx). On Days 1 and 2, the mice were allowed to explore only correct arms baited with a reward (food pellets, 5 mg) for 10 minutes. On Days 3 to 9, the mice were allowed to explore all the arms for 5 minutes at maximum until the mice finished the reward while the ends of the correct arms were baited with the reward. On Day 10, a vehicle (V: 10% DMSO solution; dissolved in saline; n=10), PA-915 (PA: 30 mg/kg; n=10) or ketamine (K: 20 mg/kg; n=10) was intraperitoneally administered thereto (0.1 mL/10 g). The mice were allowed to freely explore the maze from 30 minutes later, and the number of entries to the arms without the reward (the number of errors) was measured. During the test period, the absence of marked change in the body weights of the mice by dietary restriction was confirmed. The data was indicated by mean±standard error. **P<0.01 (One-way ANOVA followed by Tukey-Kramer test).
SMILES,"pharmacological action in open field test (total distance traveled, center zone entries, time in center zone) (normal mice [1])",analgesic action [2],PAC1 receptor antagonistic action (PAC1 receptor),"effect on depressive-like behavior (forced swim test, immobility time) [3]","influence on spatial working memory (number of errors, radial maze) (normal mice [4])"
"Nc1nc2c(c(=O)[nH]1)C(c1cccc(OC(F)(F)F)c1)CC(=O)N2 (stereo not shown) [PA-81004, 2-Amino-5-(3-trifluoromethoxyphenyl)-5,8-dihydro-3H,6H-pyrido[2,3-d]pyrimidine-4,7-dione]",no pharmacological action,,,,
C=CCOc1ccc(C2CC(=O)Nc3nc(N)[nH]c(=O)c32)cc1OC (stereo not shown) [PA-8],no pharmacological action,analgesic action,PAC1 receptor antagonistic action,,
CNC1(c2ccccc2Cl)CCCCC1=O (stereo not shown) [ketamine],,,,improved depressive-like behavior,decreased spatial cognitive function
CNCCC(Oc1ccc(C(F)(F)F)cc1)c1ccccc1 (stereo not shown) [fluoxetine],,,,exhibited no improving effect,
O=C(NCCc1c[nH]cn1)C1CC(=O)N(c2n[nH]c3ccccc23)C1 (stereo not shown) [PA-9],no pharmacological action,analgesic action,PAC1 receptor antagonistic action,,
